Source: patent publication US11225642B2, “Method for producing renal progenitor cells” (KYOTO UNIVERSITY, priority 2013, dated 2022)

System: OSR1-positive cells sorted from OSR1-GFP & SIX2-tdTomato reporter human iPS cell line
Assay: SIX2-positive cell induction method 3, SIX2-tdTomato-positive cell rate by flow cytometer
Type: cell-based
Details: stage 3 medium with 5 ng/ml TGFβ1 and 0.5 μM Dorsomorphin
Method: The OSR1-GFP & SIX2-tdTomato reporter human iPS cell line obtained by the method in Example 1 was cultured in the manner described in stage 1 of induction method 1 to become confluent in 10-cm dishes using SNL cells as feeder cells. A CTK solution was added to dissociate the cells. After removal of the feeder cells, Accutase™ (Innovative Cell Technologies, AT-104) was added to disperse iPS cells to result in single cells. Then, the obtained cells were suspended in a DMEM/F12 medium containing 10 μM Y-27632 (Wako, 253-00513), 1 μM CHIR99021, 1 μM TTNPB, 1% GlutaMAX (100×), 2% FBS, and 0.5% PenStrep. The obtained cell suspensions (1×10^5 cells/well (for a 96-well dish)) were transferred to a dish coated with 0.1% gelatin (Gelatin from porcine skin, Type A (Sigma, G1890)), followed by adhesion culture at 37° C. in a 5% CO2 atmosphere for 2 days.
The cells obtained at stage 1 were washed with PBS. The medium was exchanged with a DMEM/F12 medium containing 1 μM TTNPB, 0.1% 2-mercaptoethanol (1000×), 1% GlutaMAX (100×), 10% KnockOut SR, 0.1 mM MEM NEAA, and 0.5% PenStrep, followed by adhesion culture at 37° C. in a 5% CO2 atmosphere for 3 to 9 days. In this case, the medium was exchanged every 3 days with a medium having the same conditions.
Accutase™ was added to cells obtained at stage 2 to dissociate the cells. […]

Compound | SIX2-tdTomato-positive cell rate [%]
c1cc(-c2cnn3cc(-c4ccc(OCCN5CCCCC5)cc4)cnc23)ccn1 [Dorsomorphin, 6-[4-(2-piperidin-1-yl-ethoxy)phenyl]-3-pyridin-4-yl-pyrazolo[1,5-a]pyrimidine] | 31.1±10.0
TGFβ1: TGFβ signaling activator protein (Peprotech) | 31.1±10.0
